Experimental data published in publication PMC5559490, “Synthesis of Saccharumoside-B analogue with potential of antiproliferative and pro-apoptotic activities” (Scientific Reports, 2017).

Tests used:
[1] = tested on: DU145 prostate cancer cells; test: MTT antiproliferative assay, DU145; format: cell-based; conditions: Homo sapiens, DU-145; MTT assay; cancer cell line; mean of three independent experiments ± S.E.M.; read-out: IC50 DU145 Prostate
[2] = tested on: CaCo-2 colon cancer cells; test: MTT antiproliferative assay, CaCo-2; format: cell-based; conditions: Homo sapiens, Caco-2; MTT assay; cancer cell line; mean of three independent experiments ± S.E.M.; read-out: IC50 CaCo-2 Colon
[3] = tested on: MCF-7 cancer cells; test: Cell cycle analysis (PI, flow cytometry), MCF-7; format: cell-based, human; conditions: MCF-7 cells; 5 and 10 µM; 24 h
Method: (§1) Cancer cells (1 × 10^6/ml) were treated with different concentrations of compound (5 and10 µM) for 24 h, fixed in cold 70% alcohol in PBS, washed, digested with DNase free RNase (400 µg/mL) at 37 °C for 45 min and stained with propidium iodide (10 µg/ml). Cells were analyzed for PI-DNA fluorescence by flow cytometerically using FACS CALIBUR (Becton Dickinson, Franklin Lakes, New Jersey, USA)[28]–[30]. The fluorescence intensity of subG0/GI cell fraction represents the dead cell population.

[4] = tested on: HL-60 cells; test: Cell cycle analysis (PI, flow cytometry), HL-60; format: cell-based, human; conditions: 24 h
Method: as §1

[5] = tested on: MCF-7 breast cancer cells; test: Quantification of apoptosis (Annexin V-PI), MCF-7; format: cell-based, human; conditions: MCF-7 cells, 5 and 10 µM, 24 h
From the text: Apoptotic population of cancer cells was quantified by Annexin V-propidium iodide (PI) staining technique (Abcam, Cambridge, MA, USA) using a flow cytometer as per published technique.

[6] = tested on: Bcl-2; test: Quantification of Bcl-2 (ELISA), HL-60; format: cell-based, human; conditions: HL-60 cells; compared to untreated cells
Method: The intracellular content of Bcl-2 was quantified using the human Bcl-2 ELISA kit (Abcam, Cambridge, MA, USA). For the sample preparation, the cells were lysed with 1X lysis buffer. After 1 h of incubation at room temperature, the sample was spun at 1,000 g for 15 min and the supernatant was used for Bcl-2 measurement. Briefly, 80 μL of sample diluent and 20 μL of sample were added into the wells coated with monoclonal antibody to human Bcl-2, and after that the wells were washed twice with the wash buffer. Next, 50 μL of biotin-conjugate were added into the wells. After 2 h of incubation at room temperature on a microplate shaker, 100 μL of streptavidin-horseradish peroxidase were added. The sample was incubated again for 1 h at room temperature on a microplate shaker. The solution was withdrawn and the wells were washed with 3X wash buffer. Immediately, 100 μL of TMB substrate solution were added. Finally, 100 μL of stop solution were added into each well to stop the enzyme reaction. The absorbance was read using an ELISA reader at 450 and 620 nm wavelengths. Bcl-2 protein concentration was determined from the standard protein graphic using the optical densities of the samples[32].

[7] = tested on: Bax; test: Quantification of Bax (immunometric assay), MCF-7; format: cell-based, human; conditions: MCF-7 cells; compared to untreated cells
Method: Bax protein concentration determination was carried out using the Human Bax Enzyme Immunometric Assay kit (Assay Designs, Ann Arbor, MI, USA). The lysate (sample) preparation was carried out according to the manual. Following centrifugation (16,000 g for 15 min), the cells were resuspended in Modified Cell lysis buffer 4 [0.5 μL/mL of Sigma Protease Inhibitor Cocktail and 1 mM phenylmethylsulfonyl fluoride (PMSF)]. Cell lysate (100 μL) (sample) was added into the wells coated with monoclonal antibody to human Bax-α in triplicate. The plate was tapped gently to mix the contents. The sample was incubated at room temperature on a plate shaker for 1 h. The wells were emptied and washed with 5X wash buffer. After the final wash, the plate was tapped gently on a lint free paper towel to remove any remaining wash buffer. The sample was incubated again for 1 h at room temperature on a plate shaker after the addition of 100 μL of specific antibody (biotinylated monoclonal antibody to Bax-α) into each well. The wells were washed again with 5X wash buffer and emptied. Next, 100 μL of blue conjugate (streptavidin conjugated to horseradish peroxidase) was added into each well. […] The optical densities were read at 450 and 570 nm using an ELISA reader. Bax protein concentration was determined from the standard protein graphic using the optical densities of the samples[32].

[8] = tested on: cytosolic cytochrome c; test: Cytosolic cytochrome c estimation (ELISA), MCF-7; format: cell-based, human; conditions: MCF-7 cells; 5, 10 µM
Method: (§2) Cells were collected by centrifugation at 600 g for 5 min at 4 °C. The cell pellets were washed once with ice-cold PBS and resuspended in cytosol extraction buffer (20 mM Hepes-KOH, pH 7.5, 10 mM KCl, 1.5 mM MgCl2, 1 mM sodium EDTA, 1 mM sodium EGTA, 1 mM dithiothreitol and 0.1 mM PMSF) containing 250 mM sucrose on ice for 10 min. The cells were homogenized with the grinder on ice. Further, the homogenates were centrifuged at 700 g for 10 min at 4 °C. The supernatants were centrifuged at 10,000 × g for 30 min at 4 °C. Supernatant was collected as cytosolic fraction.
(§3) Cytosolic cytochrome c levels were determined using quantitative sandwich enzyme immunoassay using microplate reader. Sample or standard (100 μL) was added into each well and incubated for 2 h at room temperature. The wells were washed several times with wash buffer. The plate was inverted and cleaned with paper toweling. Cytochrome c conjugate (200 μL) was added into each well and incubated for 2 h at room temperature. Wells were washed several times with wash buffer. Substrate solution (200 μL) was added into each well and incubated for 30 min at room temperature. Finally, stop solution (50 μL) was added into wells. The optical density (absorbance) of each well was determined using microplate reader at a 450 nm wavelength.

[9] = tested on: cytosolic cytochrome c; test: Cytosolic cytochrome c estimation (ELISA), HL-60; format: cell-based, human; conditions: HL-60 cells; cytosolic fraction
Method: as §2, §3

[10] = tested on: caspase-9; test: Caspase-9 colorimetric assay, MCF-7; format: cell-based, human; conditions: MCF-7 cells
Method: (§4) Caspases-3, -8 and -9 assays were measured according to manufacturer’s instructions using a caspase colorimetric protease kit (Abcam, Cambridge, MA, USA). Cells were treated with compounds for 48 h. The cells were lysed by the addition of 50 μL of chilled cell lysis buffer and incubated on ice for 10 min. The resulting cell lysate was centrifuged for 1 min at 10,000 g, and the supernatant was collected. The cell lysate containing […] of protein was incubated with […] of 4 mmol/L pNA-conjugated substrates (DEVD-pNA, IETD-pNA and LEHD-pNA; substrates for caspase-3, -8 and -9, respectively) at 37 °C for 3 h. The amount of pNA released was measured at 405 nm using an ELISA microplate reader (Bio rad). The caspases activity was expressed as fold difference, [33].

[11] = tested on: caspase-3; test: Caspase-3 colorimetric assay, HL-60; format: cell-based, human; conditions: HL-60 cells
Method: as §4

IC50 [1]: 10.8 ± 0.42 µM | IC50 [2]: 8.66 ± 0.72 µM | effect on caspase-9 activity [10]: enhanced caspase-3 and -9 activities | effect on caspase-3 activity [11]: enhanced caspase-3 and -9 activities
Compound: COc1cc(CO)ccc1OC1OC(COC(=O)c2ccc(F)cc2)C(O)C(O)C1O (centres unmarked) [Compound 9f, (6-(4-(hydroxymethyl)-2-methoxyphenoxy)-tetrahydro-3,4,5-trihydroxy-2H-pyran-2-yl)methyl 4-fluorobenzoate]
effect on cell cycle distribution [3]: cell cycle arrest at G0/G1 phase | effect on cell cycle distribution [4]: cell cycle arrest at G0/G1 phase | apoptotic cell population [5]: dose-dependent increase in the early apoptotic to late apoptotic population | effect on Bcl-2 levels [6]: dose dependent inhibition of Bcl-2 | effect on Bax protein levels [7]: dose dependently increased | effect on cytosolic cytochrome c levels [8]: dose dependently increased | effect on cytosolic cytochrome c levels [9]: dose dependently increased
